Reference: US11642332B2, “(2R,4R)-5-(5′-chloro-2′-fluorobiphenyl-4-yl)-2-hydroxy-4-[(5-methyloxazole-2-carbonyl)amino]pentanoic acid” (THERAVANCE BIOPHARMA R&D IP, LLC, priority 2015, dated 2023)
Like-named read-outs stand apart in the source and are kept apart here.

Assays:
NEP = target: T1, NEP (Rattus norvegicus, UniProt P07861); assay: PK-PD assay for NEP activity in conscious normotensive Sprague-Dawley rats (plasma cGMP after ANP bolus); type: in vivo, male Sprague-Dawley rats; conditions: 3 mg/kg oral
T1 construct: Pre-cannulated male Sprague-Dawley rats (3 per compound evaluated) between 8 and 10 weeks of age were obtained from Harlan Laboratories; from tissue; host or cells: whole animal: conscious male Sprague-Dawley rats (Harlan Laboratories)
T1 sequence (P07861 1-750): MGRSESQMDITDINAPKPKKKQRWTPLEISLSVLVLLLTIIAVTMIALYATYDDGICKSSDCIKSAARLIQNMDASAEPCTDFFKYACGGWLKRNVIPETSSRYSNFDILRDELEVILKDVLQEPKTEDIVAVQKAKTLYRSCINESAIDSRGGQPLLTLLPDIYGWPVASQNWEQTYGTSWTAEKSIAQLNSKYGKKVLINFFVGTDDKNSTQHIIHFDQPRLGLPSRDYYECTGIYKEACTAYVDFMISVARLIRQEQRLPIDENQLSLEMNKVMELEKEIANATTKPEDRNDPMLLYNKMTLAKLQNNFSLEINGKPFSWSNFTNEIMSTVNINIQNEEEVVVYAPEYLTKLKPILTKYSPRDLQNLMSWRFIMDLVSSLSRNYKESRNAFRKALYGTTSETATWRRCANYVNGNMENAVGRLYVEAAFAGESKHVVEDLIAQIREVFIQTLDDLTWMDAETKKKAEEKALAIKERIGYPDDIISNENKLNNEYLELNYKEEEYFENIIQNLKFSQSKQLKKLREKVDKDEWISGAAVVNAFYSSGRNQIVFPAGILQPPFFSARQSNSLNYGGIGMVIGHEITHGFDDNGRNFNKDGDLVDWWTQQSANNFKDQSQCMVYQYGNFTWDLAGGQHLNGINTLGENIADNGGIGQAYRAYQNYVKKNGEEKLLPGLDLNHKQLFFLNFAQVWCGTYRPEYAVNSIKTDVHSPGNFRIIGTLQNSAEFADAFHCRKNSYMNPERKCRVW
Method: Appropriate masses of each test compound were added into a volume of vehicle (e.g. 5% sodium bicarbonate, 5% dextrose in H2O) such that the final concentration of each compound was appropriate to be dosed at 2 mL/kg. Note that a homogenous suspension was deemed to be acceptable for oral dosing.
Pre-cannulated male Sprague-Dawley rats (3 per compound evaluated) between 8 and 10 weeks of age were obtained from Harlan Laboratories (Indianapolis, Ind.). Rats received a single oral gavage of the dosing solution. The final dose was typically in the range of 3-30 mg/kg. Serial blood samples were harvested via the cannula implanted in the jugular vein at 3 minutes, 15 minutes, 35 minutes, 45 minutes, 1 hour, 2 hours, 4 hours, 6 hours, and 24 hours post-dose. Samples were collected into microtainer tubes containing EDTA as the anticoagulant and were processed to plasma by refrigerated centrifugation. Fifteen minutes prior to the 45 minute, 2 hour, 4 hour, 6 hour, and 24 hour samples, an IV bolus (30 μg/kg) of Atrial Natriuretic Peptide (ANP) was administered. […] Since binding of ANP to its receptor leads to activation of guanylyl cyclase and subsequent production of cyclic guanosine monophosphate (cGMP), the observation of elevated levels of cGMP (>20 nM) in plasma 15 minutes after the IV administration of the ANP bolus was interpreted as evidence of ongoing neprilysin inhibition. Elevated levels plasma cGMP levels 24 hours after dosing is an indicator of the duration pharmacologic effect, analogous to plasma clearance values as indicators of pharmacokinetic persistence.
Plasma samples were extracted with 3 volumes of MeCN containing a suitable internal standard. Extracts were reconstituted into 3 volumes of water containing 1% formic acid. Plasma cGMP and test compound concentrations were quantified in plasma samples by HPLC-coupled mass spectrometric detection.

[1] = IV/PO pharmacokinetic study in rats; type: in vivo, male Sprague-Dawley rats; set-up: AUC(0-t): concentration or dose not given beside the values; conditions: rat; for AUC(0-t): read-out: AUClast Mean
Method: Each rat or dog PK study began with formulation of the test compound. Appropriate masses of each test compound were added into a volume of vehicle (e.g. 5% sodium bicarbonate, 5% dextrose in H2O) such that the final concentration of each compound was appropriate to be dosed at 2 mL/kg. Although a homogenous suspension were acceptable for oral dosing, intravenous dosing solutions were sterile-filtered (0.2 μm) prior to dosing to ensure no particulates were administered.
In the rat study, pre-cannulated male Sprague-Dawley rats (3 per route) between 8 and 10 weeks of age were obtained from Harlan Laboratories (Indianapolis, Ind.). Rats received either a single oral gavage or a single intravenous (via lateral tail vein) dose of the dosing solution. The final dose was typically 0.5-3 mg/kg. Serial blood samples were harvested via the cannula implanted in the jugular vein at 3 minutes, 15 minutes, 30 minutes, 1 hour, 2 hours, 4 hours, 6 hours, and 24 hours post-dose. Sampling was performed either manually or using automated blood samplers. Samples were collected into microtainer tubes containing EDTA as the anticoagulant and were processed to plasma by refrigerated centrifugation.
Plasma samples were extracted with 3 volumes of MeCN containing a suitable internal standard. Extracts were reconstituted into 3 volumes of water containing 1% formic acid, and analyzed via HPLC-coupled MS/MS. Plasma concentration-time data were analyzed using the Phoenix software (Pharsight Corp., St. Louis, Mo.) to calculate pharmacokinetic parameters.
Plasma clearance was determined from the intravenous arm of the study, and represents the rate at which plasma is cleared of drug. It is equal to the dose divided by the area under the plasma concentration-time curve. In addition to plasma clearance, it is also essential for an orally administered drug to reach efficacious systemic levels following oral delivery. Oral bioavailability is a measurement of plasma exposures following oral administration relative to exposures following intravenous administration.

cGMP Concentration 24 hours After Dosing Mean (NEP; rat plasma, 15 min after IV ANP bolus (30 μg/kg), average of three determinations): 112 nM | potentiation of cGMP 24 hr after dosing compared to Compounds C2, C3 and C4 (NEP; rat): more than 2 fold | AUC(0-t) ([1]; male, Sprague-Dawley, plasma, IV): 610 ng·h/mL | bioavailability ([1]; male, Sprague-Dawley, plasma, PO vs IV AUClast): 67% | AUC(0-t) ([1]; male, Sprague-Dawley, plasma, PO): 400 ng·h/mL | CLlast Mean ([1]; IV, dose divided by AUClast): 13.8 mL/min/kg
SMILES: Cc1cnc(C(=O)N[C@H](Cc2ccc(-c3cc(Cl)ccc3F)cc2)C[C@@H](O)C(=O)O)o1 [Compound 1, (2R,4R)-5-(5′-Chloro-2′-fluorobiphenyl-4-yl)-2-hydroxy-4-[(5-methyloxazole-2-carbonyl)amino]pentanoic Acid]
